Test system: pregnant rabbits
Conditions: female, rabbit, in vivo, po

SMILES: CC(C)NC(=O)COc1cccc(-c2nc(Nc3ccc4[nH]ncc4c3)c3ccccc3n2)c1 [belumosudil, 2-{3-[4-(1H-indazol-5-ylamino)-2-quinazolinyl]phenoxy}-N-(propan-2-yl) acetamide]
- doses at which embryo-fetal effects were observed: ≥ 50 mg/kg/day
- doses at which maternal toxicity (body weight loss and mortality) was observed: ≥ 125 mg/kg/day
